Measurements reported in PMC8968748 (Journal of medicinal chemistry, 2021).
Converted amounts (≈) assume the structure as drawn. Blank lines part the entries; values can stand above or below the molecule they belong to.

Experiments:
U87-mIDH1 (R132H) cells = assay: Cellular 2-HG production assay; type: cell-based, human
IDH1(R132H)-86b = assay: SplitLuc CETSA target engagement in HEK293T cells; type: cell-based; details: relative to 119
[1] = Mouse pharmacokinetic study; type: in vivo
[2] = tested on: U87 mIDH1 (R132H) xenograft; assay: PK/PD in U87 R132H mIDH1 xenograft mouse model; type: in vivo; details: single 30 mg/kg p.o.
[3] = PK/PD in U87 R132H mIDH1 xenograft mouse model; type: in vivo; details: female, athymic nude (nu/nu NCr), mouse, in vivo, po, 30 mg/kg
WT IDH1 = WT IDH1 (Homo sapiens, UniProt O75874); assay: IDH1-WT selectivity assay; type: biochemical
WT IDH1, sequence (O75874 whole entry): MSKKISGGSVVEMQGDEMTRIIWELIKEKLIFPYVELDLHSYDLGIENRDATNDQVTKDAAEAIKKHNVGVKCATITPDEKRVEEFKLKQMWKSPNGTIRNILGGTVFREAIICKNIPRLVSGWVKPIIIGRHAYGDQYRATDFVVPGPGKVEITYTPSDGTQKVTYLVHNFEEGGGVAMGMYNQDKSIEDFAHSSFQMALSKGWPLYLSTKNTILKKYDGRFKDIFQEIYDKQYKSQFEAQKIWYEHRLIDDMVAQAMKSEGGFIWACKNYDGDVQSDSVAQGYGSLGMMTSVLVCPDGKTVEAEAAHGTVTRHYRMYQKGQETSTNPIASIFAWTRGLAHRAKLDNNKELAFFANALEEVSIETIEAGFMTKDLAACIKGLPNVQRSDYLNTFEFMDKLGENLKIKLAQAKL

Kinetic solubility assay = type: physicochemical; details: phosphate buffer, pH 7.4
IDH1 R132H = IDH1 R132H (Homo sapiens, UniProt O75874, R132H); assay: diaphorase/resazurin-coupled mIDH1 R132H enzyme assay; type: biochemical; details: for IDH1 R132H IC50 Fold improvement over 87: relative to compound 87
IDH1 R132H, sequence (O75874 whole entry R132H): as the sequence (O75874 whole entry) above, with R132H counted along it

IDH1 R132C = IDH1 R132C (Homo sapiens, UniProt O75874, R132C); assay: diaphorase/resazurin-coupled mIDH1 R132C enzyme assay; type: biochemical; details: for IDH1 R132C IC50 Fold improvement over 87: relative to compound 87
IDH1 R132C, sequence (O75874 whole entry R132C): as the sequence (O75874 whole entry) above, with R132C counted along it

[4] = Parallel artificial membrane permeability assay; type: in vitro ADME; details: for PAMPA (10^−6 cm/s): pH 7.4
[5] = Single time point rat liver microsome stability assay; type: in vitro ADME; details: rat liver microsomes, pH 7.4

Compound: CCc1ccc(Cl)cc1-n1c(C=C(C)C)c(C(=O)N2CCNCC2)cc(-c2nc(-c3ccc(Cl)cc3)cs2)c1=O (single isomer, unassigned) [(+)-119]
2-HG levels lowered by (%) (U87-mIDH1 (R132H) cells; 100 nM, U87-mIDH1 (R132H) cells, 48 h): more than 94% | IC50 (U87-mIDH1 (R132H) cells; Homo sapiens, read-out: potency at reducing 2-HG in the cellular assay): < 0.7 nM | fold more potent than 119 in U87 2-HG assay (U87-mIDH1 (R132H) cells; relative to 119): 30 fold | fold more potent than 119 in HEK293 engagement assay (IDH1(R132H)-86b): 13 fold | brain AUC ([1]; CD1 mice, single 30 mg/kg oral dose): 6996 ng·h/g | Kp ([1]; male, CD1, mouse, brain/plasma, po, 30 mg/kg): 0.28 | Cmax ([1]; male, CD1, mouse, plasma, po, 30 mg/kg): ~3340 nM | average concentration in tumor at 48 h ([2]; 48 h, 30 mg/kg): 7 µM | reduction in tumor 2-HG compared to AG-120 ([2]; from the 16 h time point onwards): greater reduction in tumor 2-HG

Compound: N#Cc1ccnc(N2C(=O)CC[C@H]2C(=O)N(c2cncc(F)c2)[C@H](C(=O)NC2CC(F)(F)C2)c2ccccc2Cl)c1 [AG-120]
concentration at 24 h [3]: 1600 nM | concentration at 36 h [3]: 1400 nM | concentration at 48 h [3]: 770 nM

Compound: COc1ccc(OC)c(-n2c3c(cc(-c4nc(-c5ccc(Cl)cc5)cs4)c2=O)C(=O)CC(C)(C)C3)c1 [Compound 1, 3-(4-(4-Chlorophenyl)thiazol-2-yl)-1-(2,5-dimethoxyphenyl)-7,7-dimethyl-7,8-dihydroquinoline-2,5(1H,6H)-dione]
off-target activity against WT IDH1 (WT IDH1): no readout interference and off-target activity against WT IDH1

Compound: CCc1cccc(CC)c1-n1c(C)c(C(=O)NC)cc(-c2nc(-c3ccc(Cl)cc3)cs2)c1=O [Compound 70, 5-(4-(4-Chlorophenyl)thiazol-2-yl)-1-(2,6-diethylphenyl)-N,2-dimethyl-6-oxo-1,6-dihydropyridine-3-carboxamide]
solubility kinetic at 6 h (Kinetic solubility assay): < 1 µM

Compound: CCc1cccc(CC)c1-n1c(C)c(C(=O)N2CCNCC2)cc(-c2nc(-c3ccc(Cl)cc3)cs2)c1=O [Compound 87, 3-(4-(4-Chlorophenyl)thiazol-2-yl)-1-(2,6-diethylphenyl)-6-methyl-5-(piperazine-1-carbonyl)pyridin-2(1H)-one]
fold improvement in potency compared to analog 70 (IDH1 R132H; mIDH1 R132H, relative to 70): 7 fold | solubility kinetic at 6 h (Kinetic solubility assay): 6.7 µM (≈ 3.67 µg/mL)

Compound: CCCc1c(C(=O)N2CCNCC2)cc(-c2nc(-c3ccc(Cl)cc3)cs2)c(=O)n1-c1c(CC)cccc1CC [Compound 89, 3-(4-(4-Chlorophenyl)thiazol-2-yl)-1-(2,6-diethylphenyl)-5-(piperazine-1-carbonyl)-6-propylpyridin-2(1H)-one]
IDH1 R132H IC50 Fold improvement over 87 (IDH1 R132H): 2.8 fold | IDH1 R132C IC50 Fold improvement over 87 (IDH1 R132C): 15 fold | PAMPA (10^−6 cm/s) [4]: 134 10^−6 cm/s

Compound: CCc1cccc(CC)c1-n1c(CC(C)C)c(C(=O)N2CCNCC2)cc(-c2nc(-c3ccc(Cl)cc3)cs2)c1=O [Compound 91, 3-(4-(4-Chlorophenyl)thiazol-2-yl)-1-(2,6-diethylphenyl)-6-isobutyl-5-(piperazine-1-carbonyl)pyridin-2(1H)-one]
IDH1 R132H IC50 Fold improvement over 87 (IDH1 R132H): 1.9 fold | IDH1 R132C IC50 Fold improvement over 87 (IDH1 R132C): 13 fold | PAMPA (10^−6 cm/s) [4]: 16 10^−6 cm/s

Compound: CCc1cccc(CC)c1-n1c(C=C(C)C)c(C(=O)N2CCNCC2)cc(-c2nc(-c3ccc(Cl)cc3)cs2)c1=O [Compound 92, 3-(4-(4-Chlorophenyl)thiazol-2-yl)-1-(2,6-diethylphenyl)-6-(2-methylprop-1-en-1-yl)-5-(piperazine-1-carbonyl)pyridin-2(1H)-one]
IDH1 R132H IC50 Fold improvement over 87 (IDH1 R132H): 4.8 fold | IDH1 R132C IC50 Fold improvement over 87 (IDH1 R132C): 26 fold | PAMPA (10^−6 cm/s) [4]: 225 10^−6 cm/s

Continued, values first:

IDH1 R132H IC50 Fold improvement over 87 (IDH1 R132H): 3.8 fold | IDH1 R132C IC50 Fold improvement over 87 (IDH1 R132C): 31 fold | PAMPA (10^−6 cm/s) [4]: 43 10^−6 cm/s
Compound: CCc1cccc(CC)c1-n1c(CC2CC2)c(C(=O)N2CCNCC2)cc(-c2nc(-c3ccc(Cl)cc3)cs2)c1=O [Compound 93, 3-(4-(4-Chlorophenyl)thiazol-2-yl)-6-(cyclopropylmethyl)-1-(2,6-diethylphenyl)-5-(piperazine-1-carbonyl)pyridin-2(1H)-one]

IDH1 R132H IC50 Fold improvement over 87 (IDH1 R132H): 2.8 fold | IDH1 R132C IC50 Fold improvement over 87 (IDH1 R132C): 12 fold | PAMPA (10^−6 cm/s) [4]: 24 10^−6 cm/s
Compound: CCc1cccc(CC)c1-n1c(CC2CCNC2)c(C(=O)N2CCNCC2)cc(-c2nc(-c3ccc(Cl)cc3)cs2)c1=O (stereo not drawn) [Compound 98, 3-(4-(4-Chlorophenyl)thiazol-2-yl)-1-(2,6-diethylphenyl)-5-(piperazine-1-carbonyl)-6-(pyrrolidin-3-ylmethyl)pyridin-2(1H)-one]

solubility at 6 h (Kinetic solubility assay): < 1 µg/mL | half-life at 1 μM [5]: 25 min | Papp at 30 min, 0.05 mM ([4]; PAMPA, pH 7.4, PAMPA (10^−6 cm/s)): 213 ×10⁻⁶ cm/s
Compound: CCc1cccc(CC)c1-n1c(C=C(C)C)c(C(=O)N2CCNC(C)C2)cc(-c2nc(-c3ccc(Cl)cc3)cs2)c1=O (stereo not drawn) [Compound 99, 3-(4-(4-Chlorophenyl)thiazol-2-yl)-1-(2,6-diethylphenyl)-5-(3-methylpiperazine-1-carbonyl)-6-(2-methylprop-1-en-1-yl)pyridin-2(1H)-one]

fold drop in R132H potency (IDH1 R132H; relative to 92): 7.5 fold | fold drop in R132C potency (IDH1 R132C; relative to 92): 55 fold
Compound: CC(C)=Cc1c(C(=O)N2CCNCC2)cc(-c2nc(-c3ccc(Cl)cc3)cs2)c(=O)n1-c1ccccc1 [Compound 113, 3-(4-(4-Chlorophenyl)thiazol-2-yl)-6-(2-methylprop-1-en-1-yl)-1-phenyl-5-(piperazine-1-carbonyl)pyridin-2(1H)-one]
